Assays:
[1] = tested on: mice; assay: Spontaneous activity (S.A.), mouse tetrad; format: in vivo; details: Mus musculus, iv
[2] = target: T1, human CB1 receptor (Homo sapiens, UniProt P21554); assay: [35S]GTPγS binding assay in membranes of CB1 expressing cells; format: biochemical; details: for EC50: CB1 EC50, [35S]GTPγS binding, mean±SEM; for Emax: maximal GTPγS binding as percentage of stimulation produced by CP 55,940, read-out: CB1 % CP Stim
T1 construct: expressed in transfected cells; b94 says CHO for CB1
Procedure: (§1) For the in vivo studies, the drugs were dissolved in either saline or emulphor:ethanol:saline (E:E:S) as indicated.
cLogP calculations. Absolute solubility determinations were not performed. Rather, cLogP calculations were performed using the CS ChemDraw Ultra software (Cambridge Soft Corporation, Cambridge, Mass.). Receptor Binding. HEK-293 cells stably expressing the human CB1 receptor were cultured in DMEM with 10% FBS and Chinese Hamster Ovary (CHO) cells stably expressing the human CB2 receptor were cultured in DMEM with 10% FCS. Cells were harvested by replacement of the media with cold phosphate-buffered saline containing 1 mM EDTA followed by centrifugation at 1000×g for 5 min at 4° C. The pellet was resuspended in 50 mM Tris-HCl containing 320 mM sucrose, 2 mM EDTA and 5 mM MgCl2 (pH 7.4) (centrifugation buffer), then centrifuged at 1000×g for 10 min at 4° C., and the resulting supernatant was saved. This process was repeated twice. The supernatant fractions were combined and centrifuged at 40,000×g for 30 min at 4° C. The resulting P2 pellet was resuspended in assay buffer (50 mM Tris-HCl (pH 7.4), 3 mM MgCl2, 0.2 mM EGTA, and 100 mM NaCl) and protein was determined by the method of Bradford ENRfu(Bradford 1976). Membranes were stored at −80° C. until use. […] The assay was incubated at 30° C. for 1 hr and terminated by addition of ice cold 50 mM Tris-HCl plus BSA (1 mg/ml) (pH 7.4) followed by filtration under vacuum through Whatman GF/B glass fiber filters with 3 washes with cold Tris buffer. Bound radioactivity was determined by liquid scintillation spectrophotometry at 50% efficiency after extraction by shaking samples for 30-60 min with Budget-Solve scintillation fluid. Data are reported as the mean±SEM of three experiments, each performed in triplicate. Ki values were calculated from displacement data using EBDA (Equilibrium Binding Data Analysis; BIOSOFT, Milltown, N.J.). [^35S]GTPγS Binding Assays. Concentration-effect curves were generated by incubating membranes (10 μg prepared from CB1 expressing cells as described above) in assay buffer containing BSA (1 mg/ml) with various concentrations of test compounds in the presence of 20 μM GDP and 0.1 nM [^35S]GTPγS in a 1 ml total volume. […] Basal binding was assessed in the absence of agonist, and nonspecific binding was measured in the presence of 10 μM GTPγS. The reaction was incubated for 90 min at 30° C. and terminated by filtration under vacuum through Whatman GF/B glass fiber filters with 3 washes with cold (4° C.) Tris buffer (50 mM Tris-HCl, pH 7.4). Bound radioactivity was determined by liquid scintillation spectrophotometry at 95% efficiency after extraction overnight in ScintiSafe Econo 1 scintillation fluid. Data are reported as mean±SEM of three experiments, each performed in triplicate. Nonlinear regression analysis was conducted by iterative fitting using JMP (SAS for Macintosh). Net-stimulated [^35S]GTPγS binding is defined as [^35S]GTPγS binding in the presence of drug minus basal and percent stimulation is expressed as (net stimulated [^35S]GTPγS binding/basal)×100%. Behavioral Evaluations. All animals were allowed to acclimate to the observation room overnight. Behavioral effects were assessed in the tetrad model in order to measure potency in producing antinociception, catalepsy, hypothermia, and hypomobility. The baselines for tail-flick latency (2-4 seconds) and rectal temperature were determined prior to i.v. injections. Baseline rectal temperatures were measured using a telethermometer and a thermometer probe inserted to 25 mm (Yellow Springs Instrument Co., Yellow Springs, Ohio). The mice were then given either an i.v. i.c.v. injection of the analog. The mice were placed in individual photocell activity chambers 5 min later. Spontaneous activity was monitored for 10 min in a Digiscan Animal Activity Monitor (Omnitech Electronice, Inc., Columbus, Ohio) as measured by the number of interruptions of 16 photocell beams per chamber.

[3] = tested on: mice; assay: Rectal temperature (R.T.), mouse tetrad; format: in vivo; details: Mus musculus, iv
[4] = tested on: mice; assay: Tail-flick antinociception (T.F.), mouse tetrad; format: in vivo; details: for ED50: Mus musculus, iv, mice, i.v.
[5] = tested on: mice; assay: Relative immobility (R.I.), ring-immobility test, mouse tetrad; format: in vivo; details: Mus musculus, iv
[6] = Procedure: By “water-soluble” we mean that 1 mg of material in 1 ml of water gives a clear solution and is water miscible.
as §1

[7] = figure legends, i.v., vehicle 1:1:18 ethanol:emulphor:saline, read-out: ED50 after i.v. administration, spontaneous activity
[8] = vehicle E:E:S (1:1:18), read-out: S.A. ED50 (reducing spontaneous activity)
[9] = figure legends, i.v., vehicle 1:1:18 ethanol:emulphor:saline, read-out: ED50 after i.v. administration, rectal temperature
[10] = vehicle E:E:S (1:1:18), read-out: R.T. ED50 (lowering rectal temperature)
[11] = figure legends, vehicle 1:1:18 ethanol:emulphor:saline, read-out: ED50 after i.v. administration, tail-flick
[12] = vehicle E:E:S (1:1:18), read-out: T.F. ED50 (antinociception in the tail-flick procedure)
[13] = figure legends, i.v., vehicle 1:1:18 ethanol:emulphor:saline, read-out: ED50 after i.v. administration, relative immobility
[14] = vehicle E:E:S (1:1:18), read-out: R.I. ED50 (relative immobility)

T1 sequence (P21554 whole entry): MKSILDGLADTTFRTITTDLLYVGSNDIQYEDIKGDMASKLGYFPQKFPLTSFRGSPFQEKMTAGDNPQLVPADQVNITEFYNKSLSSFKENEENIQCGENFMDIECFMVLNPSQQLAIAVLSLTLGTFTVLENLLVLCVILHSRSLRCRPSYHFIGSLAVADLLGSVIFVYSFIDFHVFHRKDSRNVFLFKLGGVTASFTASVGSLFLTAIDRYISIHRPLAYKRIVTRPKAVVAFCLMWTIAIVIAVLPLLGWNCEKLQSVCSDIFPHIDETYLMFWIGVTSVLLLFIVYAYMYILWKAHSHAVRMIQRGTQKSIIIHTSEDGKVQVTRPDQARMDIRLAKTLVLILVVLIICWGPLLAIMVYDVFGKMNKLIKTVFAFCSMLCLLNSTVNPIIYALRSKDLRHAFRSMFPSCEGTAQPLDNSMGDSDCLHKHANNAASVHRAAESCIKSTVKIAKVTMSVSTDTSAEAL

Compound | ED50 [1, 7] [µmol/kg] | ED50 [1, 8] [µmol/kg] | EC50 [2] [nM] | Emax [2] [%] | ED50 [3, 9] [µmol/kg] | ED50 [3, 10] [µmol/kg] | ED50 [4, 11] [µmol/kg] | ED50 [4, 12] [µmol/kg] | Analgesia in the tail-flick procedure ([4]; oral 10 mg/kg, at one hr) [%] | ED50 [5, 13] [µmol/kg] | ED50 [5, 14] [µmol/kg] | Solubility (water-soluble) [6] | Antinociception following oral administration ([4]; oral, maximum dose tested 10 mg/kg, 30 minutes before testing)
CC1=CC[C@@H]2[C@@H](C1)c1c(O)cc(C(C)(C)CCCCn3cccn3)cc1OC2(C)C [O-2715, Pyrazol-1-yl] | 0.004 | 0.004 | 4.03 ± 0.28 | 93 ± 1.75 | 0.14 | 0.14 | 0.06 | 0.06 | 21±6 | 0.07 | 0.07 | No | 
CC1=CC[C@@H]2[C@@H](C1)c1c(O)cc(C(C)(C)CCCCn3cncn3)cc1OC2(C)C [O-2716, 1,2,4-Triazol-1-yl] | 0.03 | 0.03 | 36.8 ± 4.23 | 93.1 ± 1.65 | 0.15 | 0.15 | 0.09 | 0.09 |  | 0.2 | 0.2 | No | failed to produce complete antinociception
